biological target: T1, lipase enzyme (Thermomyces lanuginosus, UniProt O59952, N255R/T253R); experiment: Washing test: total hydrolysis of rapeseed oil on a polyester swatch by lipase-containing washing liquor, free oleic acid quantified by HPLC; format: biochemical; conditions: about 100 ppm by weight surfactant; lipase concentrate about 0.2 g/l; pH about 9.6; about 50° C.; water hardness 2 fH
T1 construct: purchased Novozymes LIPEX 100 L
Description: The total hydrolysis of rapeseed oil in a wash process was tested with washing liquors that were always comprising the same concentration of a lipase enzyme concentrate. A blank test was performed without any added surfactant. This blank test served as the reference with which could be compared the other results obtained with the same washing liquor samples into which one of a number of different non-ionic surfactants were added.
In the experiments, the lipase concentrate was always present in a concentration of about 0.2 gram of the concentrate per litre of total liquor.
The washing tests were performed at a temperature of about 50° C. The water in the formulations was demineralised water obtained by reverse osmosis (RO).
Different washing liquors were prepared containing about 100 ppm by weight of a selected surfactant, to be compared with a blank liquor containing only the lipase enzyme concentrate and no surfactants.
For each liquor was tested the appearance of free oleic acid generated from the hydrolysis of a standard amount of rapeseed oil with which the liquor was brought in contact. Monitored by High Performance Liquid Chromatography (HPLC) was the quantitative release of free oleic acid (C18:1 fatty acid) in the washing liquor and/or present on the textile, as explained as part of the protocols below. Because oleic acid is the main fatty acid in the triglycerides of rapeseed oil, the generation of this acid as free fatty acid it is an excellent quantitative marker for the hydrolysis of rapeseed oil, in this context thus also for the activity of the lipase enzyme.
A series of tests were performed using water having a hardness of 2 fH. […] For each surfactant choice 2 duplicate samples were tested, except for Sample J (3 duplicates) and Sample K (only 1 sample tested). […] Also shown for each bar with a surfactant is an error bar showing the difference between the lowest and the highest of the duplicates.
The washing tests consisted of contacting at 50° C. a washing liquor containing the selected surfactant together with 0.2 grams per litre of the lipase enzyme concentrate and having a pH of 9.6 with a polyester swatch type W30-A (PES W30-A textile swatch obtained from the company Center For Testmaterials BV (NL)) that has been pre-treated with an amount of rapeseed oil such that the textile swatch contained about 1.5 grams of rapeseed oil on a total weight of slightly over 8 grams of pre-treated swatch.
The pre-treatment consisting of distributing a generous amount of rapeseed oil over the swatch by means of a paint roller. After applying the rapeseed oil onto the swatch, the impregnated swatch was left to dry for 48 hours between two layers of textile for assuring saturation and for absorbing the excess, after which the swatch was weighed on an analytical balance. The difference with the weight of the swatch before applying the rapeseed oil provides the amount of rapeseed oil that was present on the swatch.
In a 600 ml beaker is introduced 500 grams of the stock solution that was prepared in step 2, and this is brought up to a temperature of […] under stirring by means of a mixer submerged close to the bottom of the beaker at about 200 rpm. To this stock solution is then added 100 microliter (“μl”) of the concentrate of the lipase enzyme. Into this warm solution is then introduced the textile (i.e. the pre-treated PES swatch) to be tested, and the time counting of 10 minutes is started. Where a surfactant should be included, 50 milligram thereof is added into the beaker prior to introducing the lipase enzyme and of the textile.
After the 10 minutes contacting time provided in part 1, about 30 grams of the wash water (or wash liquor) is introduced into the 250 ml beaker containing the buffer solution and the formic acid. The formic acid serves to inactivate the lipase enzyme, so that the reaction is stopped. The total weight of the beaker content is noted and should be ±35 grams.
The dried textile is first weighed. […]

T1 sequence (O59952 23-291 T253R/N255R): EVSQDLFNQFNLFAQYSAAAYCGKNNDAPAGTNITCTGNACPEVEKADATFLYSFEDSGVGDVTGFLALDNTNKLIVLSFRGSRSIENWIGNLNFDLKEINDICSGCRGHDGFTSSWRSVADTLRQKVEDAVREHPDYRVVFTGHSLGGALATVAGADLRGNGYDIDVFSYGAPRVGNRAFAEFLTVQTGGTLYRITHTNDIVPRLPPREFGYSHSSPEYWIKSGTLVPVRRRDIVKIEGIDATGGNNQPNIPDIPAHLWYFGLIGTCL

Row | Substance | effect of the surfactant on lipase activity in the washing liquor (in words, FIG. 1)
1 | 5EO-C13-C15 [M] | relatively benign
2 | 5EO-isoC13 | not better than the conventional LES surfactant
3 | 7EO-C13-15 [N] | much larger depressing effect
4 | 7EO-isoC13 [F] | not better than the conventional LES surfactant
5 | 9EO-isoC13 [G] | not better than the conventional LES surfactant
6 | 10EO-isoC13 [H] | not better than the conventional LES surfactant
7 | C8-C10 APG-DP of 1.7 [Sample K] | much lower depressing effect
8 | C8-C10 alkyl polyglucoside (APG) with an average degree of polymerisation (DP) of 1.5 | much lower depressing effect
9 | C8-C16 APG-DP of 1.5 [Sample J] | much lower depressing effect
10 | C9-C11 fatty alcohol alkoxylated with an average ethoxylation degree of about 6 and an average propoxylation degree of about 4 [Sample O] | worse than the LES reference
11 | C12-C14 amine oxide [P] | significant boost
12 | a mixture of linear C13-C15 alcohol that has been ethoxylated to an average degree of about 3 | relatively benign
13 | isotridecyl alcohol ethoxylated to an average degree of ethoxylation of about 3 | not better than the conventional LES surfactant

same assay, conditions: about 100 ppm by weight surfactant; lipase concentrate about 0.2 g/l; pH about 9.6; about 50° C.; water hardness 2 fH; 10 minute washing test

Row | Substance | relative lipase activity relative to the blank liquor (A) set at 100% [%]
14 | Linear Alkyl Benzene Sulphonate [Sample B] | 12

biological target: T1, lipase enzyme; experiment: as above; format: biochemical; conditions: Example 5, surfactant concentration series

Row | Substance | surfactant concentration at which the suppressing activity already becomes noticeable [ppm by weight] | surfactant concentration until which the suppressing effect further grows (about the same up to 250 ppm by weight)
15 | 5EO-isoC13 | 10 | about 100 ppm by weight
